Results: patent publication US20160297829A1, “METHOD FOR PRODUCING AVENACIOLIDES AND USES THEREOF” (Academia Sinica, priority 2015, published 2016)
≈ marks a conversion by molar mass, not a printed value. Where “and” joins values, the source holds several entries; their conditions need not be identical. Equal values may be shown once. Read-outs that look alike come from different tables or passages of the source.

How the values were obtained:
[1] = system: S. aureus ATCC 33592 (MRSA strain); assay: Minimum Inhibition Concentration (MIC) assay; format: cell-based, methicillin-resistant Staphylococcus aureus (MRSA); details: Staphylococcus aureus, overnight at 37° C.
Text: (§1) Various strains of microorganisms were used in the present disclosure, including Acinetobacter baumannii (ATCO 17978), Staphylococcus aureus (ATCO 29213), methicillin-resistant Staphylococcus aureus (MRSA) (ATCO 33592), Bacillus subtilis (ATCO 23857), and Escherichia Coli (ATCO 25922), which were purchased from American Type Culture Collection (ATCO), and cultured in Mueller-Hinton (MH) II agar plates or in MH broth.
(§2) Minimum Inhibition Concentration (MIC) Assay
(§3) MIC assay is a standardized assay performed in accordance with the guidelines issued by Clinical and Laboratory Standard Institute (CLSI) that measures the ability of certain agent and/or a surface in inhibiting the growth of a microorganism or killing the microorganism after being in contact with that microorganism for 24 hrs. Accordingly, MIC is the lowest concentration of an anti-bacterial agent and/or a surface that will inhibit the visible growth of a microorganism after overnight culture.
(§4) In practice, microorganisms grown on the agar plates were re-suspended in phosphate-buffered saline (PBS) to an OD 600 of 0.1. Suitable amount of this suspension was added to the appropriate broth media at a final concentration of 5×10^5 colony-forming units (CFU)/mL. Then, 98 μL of the broth+cell solution for each strain was added to each well of 96-well assay plate. Solutions of the present compounds were freshly prepared in DMSO and then serial diluted in 2-fold steps in DMSO, resulting in a final concentrations of 0.004-256 μg/mL when diluted 1:50 in test broth. The initial inoculum for each strain was serially diluted in PBS and plated on appropriate agar plate media to ensure that the assay contained the desired number of CFU. MIC assay plates were incubated overnight at 37° C. under aerobic conditions.

[2] = biological target: T1, MRSA MurA^C119D (Staphylococcus aureus, UniProt Q5HEA0, C119D); assay: MuraA assay (malachite green); format: biochemical, methicillin-resistant Staphylococcus aureus (MRSA); details: for IC50, MurA activity: MRSA MurA C119D mutant (fosfomycin resistant), 5 replicates
T1 sequence (Q5HEA0 1-421 C119D): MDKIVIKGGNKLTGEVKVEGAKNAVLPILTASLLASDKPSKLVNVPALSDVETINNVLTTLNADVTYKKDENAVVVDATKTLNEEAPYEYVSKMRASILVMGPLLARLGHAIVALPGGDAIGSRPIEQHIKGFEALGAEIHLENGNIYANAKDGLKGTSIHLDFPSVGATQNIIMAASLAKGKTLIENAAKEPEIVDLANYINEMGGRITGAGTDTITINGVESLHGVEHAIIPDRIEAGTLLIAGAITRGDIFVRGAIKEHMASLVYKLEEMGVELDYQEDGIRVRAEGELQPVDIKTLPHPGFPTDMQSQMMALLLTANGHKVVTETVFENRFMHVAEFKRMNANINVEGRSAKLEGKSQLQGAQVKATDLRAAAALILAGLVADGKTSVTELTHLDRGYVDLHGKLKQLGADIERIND
Description: (§5) In a standardized assay, MuraA enzymes were pre-incubated with the substrate UNAG and an inhibitor for 10 min at 37° C. To determine the influence of UNAG on the binding process, experiments were performed in the absence of UNAG during pre-incubation period. The reaction was initiated by the addition of the second substrate PEP, resulting in a total volume of […] with the following concentrations: E. Coli MurA or MRSA MurA 25 nM, UNAG 310 μM, PEP 620 μM, 50 mM HEPES, pH 7.6, DMSO 1% (v/v). The reaction was stopped after 60 min at 37° C. by adding 100 μL of Lanzetta reagent containing malachite green solution (0.045% (w/v)) and ammonium heptamolybdate (8.4% (v/v)) at a ratio of 3:1 and with 0.03% (w/v) Tergitol NP-40 as dye-stabilizing detergent. After 10 min, the absorbance at 620 nm was measured using a FlexStation 3 Microplate Reader (Molecular Devices). Finally, dose-response curves were generated by measuring the enzyme activity of five replicates at least 8 different compound concentrations. The resulting data were plotted and IC50 values indicating the concentration of the compound with a residual activity of 50% were determined.
(§6) Various types of MuraA enzymes, including those from E. Coli, wild type MRSA^WT, and MRSA^C119D mutant strain, were treated with any of the compounds 10d, 13d, or 14, as well as fosfomycin, in which MRSA^WT represents wild type MurA, and MRSA^C119D mutant strain represents MRSA strain in which the 119th amino acid residue, cysteine (C), is replaced by aspartic acid (D).

[3] = biological target: MRSA MurA^WT (Staphylococcus aureus, UniProt Q5HEA0); assay: MuraA assay (malachite green); format: biochemical, methicillin-resistant Staphylococcus aureus (MRSA); details: IC50, MurA activity, MRSA MurA wild type 25 nM, UNAG 310 μM, PEP 620 μM, pH 7.6; 5 replicates
Description: as §5, §6

[4] = system: A. baumannii 17978; assay: Minimum Inhibition Concentration (MIC) assay; format: cell-based, Acinetobacter baumannii
Text: as §1, §2, §3, §4

[5] = biological target: E coli MurA (Escherichia coli, UniProt P0A749); assay: biochemical; details: IC50, MurA activity, E coli MurA 25 nM, UNAG 310 μM, PEP 620 μM, pH 7.6; 5 replicates
Description: as §5, §6

[6] = system: Mice macrophage cell line RAW 264.2; assay: AlamaBlue cell viability assay; format: cell-based; details: 24 hrs
Description: Mice macrophage cell line RAW 264.2 was used in the present disclosure. RAW 264.2 cells were cultured in RPMI 1640 medium supplemented with 10% fetal calf serum (FCS) and maintained in an environment of 5% CO2/95% air at 37° C.
AlamaBlue Cell Viability Assay
The alamarBlue cell viability assay uses a non-toxic, water-soluble resazurin dye that yields a fluorescent signal and a colorimetric change when incubated with metabolically active cells. The assay is based on the findings that metabolically active cells (or viable cells) may keep the culture medium in a reduced state, whereas the non-viable cells will turn the culture medium into an oxidized state, thereby rendering the redox indicator in the medium (i.e., resazurin dye) to convert from its non-fluorescent oxidized form (blue color) to its fluorescent reduced form (pink color). Thus, the cell viability may be monitored by the fluorescent signal changes at 590 nm.
Cells were plated in 96-well plates at a density of 5,000 cells/100 μL/well for 24 hrs, then 10 μL AlamarBlue™ reagent (AbD Serotee Ltd., Oxford, UK) and various concentrations (i.e., 12.5, 25, 50 or 100 μM) of the test compound (e.g., the compound of example 2) were added, and incubated for 24 hrs. The plates were then placed at a fluorescence reader and fluorescent signals at 590 nm were measured.
In general, mice macrophages were treated with various concentrations of the compounds of example 2 for 24 hrs, the viability of cells were then analyzed by fluorescence analysis in accordance with procedures described in “Materials and Methods” section.

[7] = system: A. baumannii; assay: Transmission Electron Microscopy (TEM) of treated bacteria; format: cell-based, Acinetobacter baumannii
Description: (§7) FIG. 1 are TEM photographs of MRSA (a-f) and A. baumannii (g-l) after being treated with the compounds of example 2 (128 μM) and fosfomycin (64 μM), in which (a) and (g) are un-treated S. aureus and A. baumannii; (b) and […] are those treated with the compound 10d, while (c) and (i) are treated with the compound of 13d; (d) and (j) are treated with the compound 14; (e) and (k) are treated with the compound 15; (f) and […] are treated with fosfomycin, in which CW, CM, IM, and OM respectively denote cell walls, cell membranes, inner membranes, and outer membranes; and
(§8) Transmission Electron Microscopy (TEM)
(§9) Exponential phase bacteria were treated with compounds at 4×MIC for 1 hr at 37° C. Then, the cells were washed and fixed and cut into thin slices and photographed using a Thin-layer TEM.

[8] = system: E. coli ATCC 25922; assay: Minimum Inhibition Concentration (MIC) assay; format: cell-based, Escherichia Coli
Text: as §1, §2, §3, §4

[9] = system: gram-positive bacteria, including MRSA; assay: Growth inhibition (MIC), summary over strains; format: cell-based; details: for anti-bacteria activity: statement in words; for MIC: Staphylococcus aureus, MRSA, text summary for compounds 10d and 13d over gram-positive strains
Text: as §2, §3, §4
In this example, the inhibitory effect of the isolated avenaciolide derivatives of example 2 (i.e., compounds 10d, 13d, 14, and 15) on the growth of gram-positive bacteria, including MRSA, were tested; and the results are summarized in Table 1.

[10] = system: S. aureus ATCC 29213; assay: Minimum Inhibition Concentration (MIC) assay; format: cell-based; details: Staphylococcus aureus, ATCC29213, overnight at 37° C.
Text: as §1, §2, §3, §4

[11] = system: B. subtilis ATCC 23857; assay: Minimum Inhibition Concentration (MIC) assay; format: cell-based; details: Bacillus subtilis, ATCC23857
Text: as §1, §2, §3, §4

[12] = system: MRSA; assay: Transmission Electron Microscopy (TEM) of treated bacteria; format: cell-based, methicillin-resistant Staphylococcus aureus (MRSA)
Description: as §7, §8, §9

[13] = 12.5 or 25 μM, fluorescence 590 nm
[14] = 50 or 100 μM, fluorescence 590 nm
[15] = 128 μg/mL (FIG. 1 legend: 128 μM), treated for an hr
[16] = B. subtilis ATCC 23857, overnight at 37° C., read-out: MIC
[17] = 17978, Acinetobacter baumannii, read-out: MIC for gram-negative bacteria
[18] = Acinetobacter baumannii, A. baumannii 17978, overnight at 37° C., read-out: MIC
[19] = Escherichia coli, ATCC25922, overnight at 37° C., read-out: MIC
[20] = fosfomycin 64 μg/mL, positive control

E coli MurA, sequence (P0A749 whole entry): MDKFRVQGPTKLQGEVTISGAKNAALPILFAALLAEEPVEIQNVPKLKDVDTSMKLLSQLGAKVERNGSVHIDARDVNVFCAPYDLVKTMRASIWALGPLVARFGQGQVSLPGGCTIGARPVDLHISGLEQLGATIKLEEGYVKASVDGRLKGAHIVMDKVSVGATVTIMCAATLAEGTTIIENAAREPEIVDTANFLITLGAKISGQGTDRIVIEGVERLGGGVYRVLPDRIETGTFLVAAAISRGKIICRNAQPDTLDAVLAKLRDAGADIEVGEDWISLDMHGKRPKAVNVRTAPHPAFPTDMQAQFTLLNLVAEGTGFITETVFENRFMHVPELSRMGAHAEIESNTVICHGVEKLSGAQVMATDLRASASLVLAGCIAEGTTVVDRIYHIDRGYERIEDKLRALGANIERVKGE

Compound | MIC [1] [µg/mL] | IC50, MurA activity [2] | IC50 [3] | IC50 [5] | growth (viability) of macrophages [6, 13] | growth (viability) of macrophages [6, 14] | cell wall structure in TEM photographs [7, 15] | anti-bacteria activity [9] | MIC [10] [µg/mL] | MIC [11, 16] [µg/mL] | cell wall structure in TEM photographs [12, 15] | IC50 [2] [µM] | MIC [4, 17] [µg/mL] | MIC [4, 18] [µg/mL] | MIC [8, 19] [µg/mL] | MIC [9] [µg/mL] | other results
C=C(C(=O)O)[C@@H]1[C@@H](CCCCCCCC)OC(=O)[C@@H]1O [Compound 14] | 256 (≈ 900 µM) | in-effective and No | ~71 µM and 71 µM | 0.9 to 10.8 µM and 10.8 µM | slightly affected | significant growth inhibition | completely unaffected | neither compound 14, nor compound 15 possessed any anti-bacteria activity | 256 (≈ 900 µM) | 256 (≈ 900 µM) | slightly affected | – | – | – | – | – | MIC ([4]; A. baumannii 17978, overnight at 37° C.): no; MIC ([8]; overnight at 37° C.): no
CCCCCCCC[C@H]1OC(=O)[C@@H]2OC(=O)[C@@H](C)[C@H]12 [Compound 15] | – | – | – | – | – | – | neither MRSA nor A. baumannii was affected | neither compound 14, nor compound 15 possessed any anti-bacteria activity | – | – | neither MRSA nor A. baumannii was affected | – | – | – | – | – | growth (viability) of macrophages ([6]; various concentrations (12.5, 25, 50 or 100 μM)): completely un-affected
C=C(C(=O)OC)[C@@H]1[C@@H](CCCCCCCC)OC(=O)[C@@H]1O [Compound 13d] | 16 (≈ 53.6 µM) | – | 6.7 µM | 0.9 to 10.8 µM and 2.8 µM | slightly affected | significant growth inhibition | not affected | – | 32 (≈ 107 µM) | 32 (≈ 107 µM) | ruptured | 7.9 | 256 (≈ 858 µM) | 256 (≈ 858 µM) | 128 (≈ 429 µM) | 16 to 32 (≈ 53.6 to 107 µM) | –
C=C1C(=O)O[C@H]2C(=O)O[C@H](CCCCCCCC)[C@@H]12 [Compound 10d] | 32 (≈ 120 µM) | – | 8.3 µM | 0.9 to 10.8 µM and 0.9 µM | slightly affected | significant growth inhibition | not affected | – | 16 (≈ 60.1 µM) | 64 (≈ 240 µM) | ruptured | 21.5 | 256 (≈ 961 µM) | 256 (≈ 961 µM) | 128 (≈ 481 µM) | 16 to 32 (≈ 60.1 to 120 µM) | –
C[C@@H]1O[C@@H]1P(=O)(O)O [fosfomycin, reference compound] | 64 (≈ 464 µM) | failed to suppress and No | 1.6 µM | 0.4 µM | – | – | – | – | 4 (≈ 29 µM) | – | – | – | – | – | 64 (≈ 464 µM) | – | MIC ([4]; Acinetobacter baumannii, 17978): 256 µg/mL (≈ 1850 µM); cell wall structure in TEM photographs [7, 20]: ruptured; MIC [11]: 128 µg/mL (≈ 927 µM); cell wall structure in TEM photographs [12, 20]: ruptured
